Data published in patent publication US4820723A, “Disubstituted tetrazole leukotriene antagonists and methods for their use thereas” (Eli Lilly and Company, priority 1987, dated 1989).

Tests used:
[1] = system: LTD4 evoked ileal contractions; assay: LTD4 antagonism: inhibition of LTD4 evoked contractions of isolated guinea pig ileum; parameters: species or system Male, Hartley guinea pigs; conditions: 5 min exposure to drug, 50% inhibition of LTD4 responses, 37° C.
Experimental: Male, Hartley guinea pigs weighing 200-450 grams were killed by decapitation. A section of terminal ileum was removed, the lumen cleaned, and the tissue divided into 2.5 cm segments. The ilea were mounted in 10 ml tissue baths containing Krebs-bicarbonate solution of the following composition in mmoles/liter: KCl, 4.6; CaCl2 ·2H2 O, 1.2; KH2 PO4, 1.2; MgSO4 ·7H2 O, 1.2; NaCl, 118.2; NaHCO3, 24.8; and dextrose, 10.0. The bath fluid was maintained at 37° C. and aerated with 95 percent oxygen and 5 percent CO2. In addition, the buffer contained 1×10^-6 M atropine to reduce ileal spontaneous activity. Isometric measurements were made with a Grass FT03C force-displacement transducer and recorded on a Grass polygraph as change in grams of force. A passive force of 0.5 g. was applied to the tissues. After an appropriate equilibration period, single submaximal control responses to pure LTD4 were obtained. Following a five minute exposure of the ileum to an experimental drug, the control concentration of LTD4 was added to the tissue bath. The response of the ileum to LTD4 in the presence of the drug was compared to the response in the absence of the drug. Various degrees of LTD4 antagonism were obtained using 2-4 different concentrations of an experimental compound on a single ileum.
Percent inhibition of LTD4 evoked ileal contractions

[2] = system: pressor response to leukotriene D4; assay: decrease of LTD4 pressor response in pithed rats; format: in vivo, Adult male Sprague-Dawley rats; conditions: Rattus norvegicus, iv, 0.25 h, 15 minutes prior to leukotriene D4 challenge (10 μg/kg, i.v.); dose to decrease pressor response by 50%
Experimental: A further measure of the final product's activity is their ability to decrease the pressor response in pithed rats that are challenged by LTD4. This activity is measured by the following standard procedure
Adult male Sprague-Dawley rats, weighting approximately 300-500 grams, are anesthetized with pentobarbital sodium (60 mg/kg, i.p.). The trachea is cannulated and the rats are ventilated with room air delivered from a rodent respirator (Harvard, model 680; tidal volume of 1 ml/100 grams body weight, 60 cycles/minute). Rats are pithed by passing a steel rod through the right orbit and down the entire length of the spinal column. The rod is left in position for the duration of the experiment. Pulsatile arterial blood pressure is measured from a cannulated carotid artery using a Stathamtransducer (P231D). Mean arterial blood pressure is calculated as diastolic pressure plus 1/3 pulse pressure. Drug solutions are administered i.v. through a catheter placed in a jugular vein. Arterial blood pressure is recorded on a multichannel oscillograph (Beckman, model R511A).
Groups of pithed rats, usually 4-6/group, are pretreated i.v. with a dose of test compound or vehicle (control experiments) 15 minutes prior to leukotriene D4 challenge (10 μg/kg, i.v.). Usually 3-4 doses of the test compound are evaluated in a given study. Blood pressure responses to leukotriene D4 in control and drug-treated pithed rats are then compared and an ED50 dose of antagonist is estimated. ED50 (95% confidence interval) is the calculated dose of antagonist (mg/kg, i.v.) required to decrease the pressor response to leukotriene D4 by 50%.
The ED50 values of selected final products of Formula I are set forth below in Table 2.

SMILES	-log IC50 [1]	ED50 [2]
CCCc1c(OCCCCc2nnn(CCCc3nn[nH]n3)n2)ccc(C(C)=O)c1O [Example 25]	7.42	8.4 mg/kg
CCCc1c(OCCCCn2nnc(Cc3ccc(C(=O)O)cc3)n2)ccc(C(C)=O)c1O [Example 67, 4-[[2-[4-(4-Acetyl-3-hydroxy-2-(n-propyl)phenoxy)butyl]-2H-tetrazol-5-yl]methyl]benzoic acid]	7.25	–
CCCc1c(Oc2ccc(-c3nnn(CCCc4nn[nH]n4)n3)cc2)ccc(C(C)=O)c1O [Example 59]	7.50	–
CCCc1c(OCCCCCCc2nnn(CC(=O)O)n2)ccc(C(C)=O)c1O [E]	6.83	> 30 mg/kg
CCCc1c(OCCCCCc2nnn(CCCC(=O)O)n2)ccc(C(C)=O)c1O [Example 39, 5-[5-(Acetyl-3-hydroxy-2-(n-propyl)phenoxy)pentyl]-2-[4-butanoic acid]-2H-tetrazole]	6.37	25.8 mg/kg
CCCc1c(OCCCCc2nnn(CCCCCC(=O)O)n2)ccc(C(C)=O)c1O [Example 29]	7.35	8.7 mg/kg
CCCc1c(OCCCCCCc2nnnn2CCCC(=O)O)ccc(C(C)=O)c1O [Example 50]	6.54	17.3 mg/kg
CCCc1c(OCCCCc2nnn(CC(=O)O)n2)ccc(C(C)=O)c1O [A]	6.68	> 30 mg/kg
CCCc1c(OCCCCc2nnn(CCCCCCc3nn[nH]n3)n2)ccc(C(C)=O)c1O [Example 26, 5-4-(4-Acetyl-3-hydroxy-2-(n-propyl)phenoxybutyl]-2-[6-(1H-tetrazol-5-yl)hexyl]-2H-tetrazole]	7.63	18.6 mg/kg
CCCc1c(OCCCCn2nnnc2CCCC(=O)O)ccc(C(C)=O)c1O [Example 65, 1-4-(4-acetyl-3-hydroxy-2-(n-propylphenoxy)butyl]-1H-tetrazole-5-butanoic acid]	6.18	–
CCCc1c(OCCCc2nnn(CC(=O)O)n2)ccc(C(C)=O)c1O [C]	5.82	–
CCCc1c(OCCCCCCc2nnn(CCCC(=O)O)n2)ccc(C(C)=O)c1O [Example 51, 5-[6-(4-Acetyl-3-hydroxy-2-(n-propyl)phenoxy)hexyl]-2H-tetrazole-2-[4-butanoic acid]]	6.75	18.3 mg/kg
CCCc1c(OCCCc2nnn(CCCCC(=O)O)n2)ccc(C(C)=O)c1O [Example 62, 5-[3-(4-Acetyl-3-hydroxy-2-propylphenoxy)-propyl]-2H-tetrazol-2-(5-pentanoic acid)]	6.47	–
CCCc1c(OCCCCc2nnn(Cc3cccc(-c4nnn[nH]4)c3)n2)ccc(C(C)=O)c1O [Example 34, 5-[4-(4-Acetyl-3-hydroxy-2-(n-propyl)phenoxy)butyl]-2-[meta-(1H-tetrazol-5-yl)benzyl]-2H-tetrazole]	7.52	25.5 mg/kg
CCCc1c(OCCCCc2nnn(CCCCCc3nnn[nH]3)n2)ccc(C(C)=O)c1O [Example 28, 5-[4-(4-Acetyl-3-hydroxy-2-(n-propyl)phenoxy)butyl]-2-[5-(1H-tetrazol-5-yl)pentyl]-2H-tetrazole]	7.57	9.7 mg/kg
CCCc1c(OCCCc2nnnn2CCCCC(=O)O)ccc(C(C)=O)c1O [Example 61, 5-[3-(4-Acetyl-3-hydroxy-2-(n-propyl)phenoxy)propyl]-1H-tetrazole-1-[5-pentanoic acid]]	5.20	–
CCCc1c(OCCCCc2nnnn2CCCC(=O)O)ccc(C(C)=O)c1O [Example 47, 5-[4-(4-Acetyl-3-hydroxy-2-(n-propyl)phenoxy)butyl]-1-[4-butanoic acid]-1H-tetrazole]	5.89	> 30 mg/kg
CCCc1c(OCCCCc2nnn(CCCCCCC(=O)O)n2)ccc(C(C)=O)c1O [Example 27, 5-[4-(4-Acetyl-3-hydroxy-2-propylphenoxy)butyl]-2H-tetrazole-2-(7-heptanoicacid)]	7.05	12.7 mg/kg

SMILES	-log IC50 [1]	ED50 [2]
CCCc1c(OCCCCCc2nnn(CCCc3nn[nH]n3)n2)ccc(C(C)=O)c1O [Example 38]	6.62	–
CCCc1c(OCCCCc2nnnn2CCC(=O)O)ccc(C(C)=O)c1O [Example 45, 5-[4-(4-Acetyl-3-hydroxy-2-(n-propyl)phenoxy)butyl]-1H-tetrazole-1-[3-propionic acid]]	5.83	> 30 mg/kg
CCCc1c(OCCCCc2nnnn2CCCCC(=O)O)ccc(C(C)=O)c1O [Example 24]	6.14	–
CCCc1c(OCCCCc2nnn(Cc3ccc(-c4nn[nH]n4)cc3)n2)ccc(C(C)=O)c1O [Example 30]	7.54	16.8 mg/kg
CCCc1c(OCCCCCCc2nnnn2CC(=O)O)ccc(C(C)=O)c1O [F]	6.59	27.1 mg/kg
CCCc1c(OCCCCc2nnn(Cc3cccc(C(=O)O)c3)n2)ccc(C(C)=O)c1O [Example 35, 5-[4-(4-Acetyl-3-hydroxy-2-(n-propyl)phenoxy)butyl]-2H-tetrazole-2-(α-methylene-m-benzoic acid)]	7.15	27.5 mg/kg
CCCc1c(OCCCCc2nnn(CCCCc3nnn[nH]3)n2)ccc(C(C)=O)c1O [Example 23A, 5-[4-(4-Acetyl-3-hydroxy-2-(n-propyl)phenoxy)butyl]-2[4-(1H-tetrazol-5-yl)butyl]-2H-tetrazole]	7.65	7.5 mg/kg
CCCc1c(OCCCCc2nnn(CCCCC(=O)O)n2)ccc(C(C)=O)c1O [Example 48, 5-[4-(4-Acetyl-3-hydroxy-2-propylphenoxy)butyl]-2H-tetrazol-2-(5-pentanoic acid)]	7.15	9.9 mg/kg
CCCc1c(OCCCc2nnnn2CC(=O)O)ccc(C(C)=O)c1O [D]	5.95	–
CCCc1c(Oc2ccc(-c3nnn(CCCC(=O)O)n3)cc2)ccc(C(C)=O)c1O [Example 60, 5-[para-(4-Acetyl-3-hydroxy-2-(n-propyl)phenoxy)phenyl]-2H-tetrazole-2-[4-butanoic acid]]	7.26	–
CCCc1c(OCCCCCc2nnn(CC(=O)O)n2)ccc(C(C)=O)c1O [G]	6.3	> 30 mg/kg
CCCc1c(OCCCCn2nnnc2Cc2ccc(C(=O)O)cc2)ccc(C(C)=O)c1O [Example 68]	6.66	–
CCCc1c(OCCCCc2nnnn2Cc2ccc(C(=O)O)cc2)ccc(C(C)=O)c1O [Example 33, 5-[4-(4-Acetyl-3-hydroxy-2-(n-propyl)phenoxy)butyl]-1H-tetrazole-1-[para-methylenebenzoic acid]]	6.30	–
CCCc1c(OCCCCc2nnn(CCC(=O)O)n2)ccc(C(C)=O)c1O [Example 44, 5-[4-(4-Acetyl-3-hydroxy-2-propylphenoxy)butyl]-2H-tetrazol-2-(3-propionic acid)]	6.81	10.6 mg/kg
CCCc1c(OCCCCc2nnnn2CC(=O)O)ccc(C(C)=O)c1O [B]	5.88	> 30 mg/kg
CCCc1c(OCCCCc2nnn(CCCC(=O)O)n2)ccc(C(C)=O)c1O [Example 46, 5-[4-(4-Acetyl-3-hydroxy-2-propylphenoxy)butyl]-2H-tetrazol-2-(4-butyric acid)]	7.12	8.1 mg/kg
CCCc1c(OCCCCCc2nnn(CCCCc3nnn[nH]3)n2)ccc(C(C)=O)c1O [Example 40, 5-[5-(4-Acetyl-3-hydroxy-2-(n-propyl)phenoxy)pentyl]-2-[4-(1H-tetrazol-5-yl)butyl]-2H-tetrazole]	6.83	–
CCCc1c(OCCCCn2nnc(CCCC(=O)O)n2)ccc(C(C)=O)c1O [Example 64, 2-[4-(4-Acetyl-3-hydroxy-2-(n-propyl)phenoxy)-butyl]-2H-tetrazole-5-butanoic acid]	7.51	–
